Columns and labels:
[1] = tested on: ABUTH (Abutilon theophrasti); experiment: Postemergence herbicidal evaluation; format: in vivo, Medic.; conditions: for ABUTH herbicidal rating: postemergence
How it was run: (§1)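 Seedlings grown for about two weeks were sprayed postemergence and then kept under standard greenhouse care. Injury was rated visually 4–5 weeks after treatment on a 0–9 scale against untreated controls, and ratings from repeat tests were averaged.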

[2] = tested on: GALAP (Galium aparine); experiment: Postemergence herbicidal evaluation; format: in vivo; conditions: for GALAP herbicidal rating: postemergence
How it was run: as §1

[3] = tested on: IPOHE (Ipomoea hederacea); experiment: Postemergence herbicidal evaluation; format: in vivo, (L.) Jacq.; conditions: for IPOHE herbicidal rating: postemergence
How it was run: as §1

[4] = tested on: ECHCG (Echinochloa crus-galli); experiment: Postemergence herbicidal evaluation; format: in vivo, (L.) Beau; conditions: for ECHCG herbicidal rating: postemergence
How it was run: as §1

[5] = tested on: SETVI (Setaria viridis); experiment: Postemergence herbicidal evaluation; format: in vivo, (L.) Beau; conditions: for SETVI herbicidal rating: postemergence
How it was run: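 Ratings use a 0-9 visual scale covering stand, vigor, malformation, size, chlorosis and appearance versus a control, scored 4-5 weeks post-spray. Roughly two-week-old seedlings received about 0.0040-1.000 kg/ha active, applied in 50/50 acetone/water with 0.5% TWEEN 20. Multiple tests per compound were averaged.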

[6] = tested on: GLXMAW (Soybean, Williams); experiment: Postemergence herbicidal evaluation; format: in vivo, Glycine max, (L.) Merr. cv Williams; conditions: for GLXMAW herbicidal rating: postemergence
How it was run: as §1

[7] = tested on: ORYSAT (Rice, Tebonnet); experiment: Postemergence herbicidal evaluation; format: in vivo, Oryza sativa, (L.) Tebonnet; conditions: for ORYSAT herbicidal rating: postemergence
How it was run: as §1

[8] = tested on: ZEAMX (Corn, Field); experiment: Postemergence herbicidal evaluation; format: in vivo, Zea mays, L.; conditions: for ZEAMX herbicidal rating: postemergence
How it was run: as §1

[9] = tested on: AMBEL (Ambrosia artemisifolia); experiment: Preemergence herbicidal evaluation; format: in vivo, L.; conditions: rated 4-5 weeks after treatment
How it was run: (§2)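 Seeds mixed with potting soil were planted atop about one inch of soil, then sprayed with test compound in aqueous acetone. Cups were kept in the greenhouse and rated visually 4–5 weeks after treatment on a 0–9 scale against untreated control.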

[10] = tested on: CASOB (Cassia obtusifolia); experiment: Preemergence herbicidal evaluation; format: in vivo, L.; conditions: rated 4-5 weeks after treatment
How it was run: as §2

[11] = tested on: CHEAL (Chenopodium album); experiment: Preemergence herbicidal evaluation; format: in vivo, L.; conditions: rated 4-5 weeks after treatment
How it was run: as §2

[12] = tested on: IPOHE (Ipomoea hederacea); experiment: Preemergence herbicidal evaluation; format: in vivo, (L.) Jacq.; conditions: rated 4-5 weeks after treatment
[13] = tested on: ECHCG (Echinochloa crus-galli); experiment: Preemergence herbicidal evaluation; format: in vivo, (L.) Beau; conditions: rated 4-5 weeks after treatment
How it was run: as §2

[14] = tested on: SETVI (Setaria viridis); experiment: Preemergence herbicidal evaluation; format: in vivo, (L.) Beau; conditions: rated 4-5 weeks after treatment
How it was run: as §2

[15] = tested on: ORYSAT (Rice, Tebonnet); experiment: Preemergence herbicidal evaluation; format: in vivo, Oryza sativa, (L.) Tebonnet; conditions: rated 4-5 weeks after treatment
[16] = tested on: ECHORC (Echinochloa oryzoides); experiment: Flooded paddy, preemergence weed control; format: in vivo, Echinochloa oryzoides (Ard.) Fritsch.; conditions: rated 3-4 weeks after treatment, 0-9 rating scale
How it was run: (§3)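 Visual 0-9 rating versus control, scoring stand, vigor, malformation, size, chlorosis and overall appearance. Silt loam soil, propagules in top 0.5 cm; flood depth 1.5–3 cm held for the whole test; greenhouse.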

[17] = tested on: CYPIR (Cyperus iria); experiment: Flooded paddy, preemergence weed control; format: in vivo; conditions: rated 3-4 weeks after treatment, 0-9 rating scale
How it was run: as §3

[18] = tested on: MOOVA (Monochoria vaginalis); experiment: Flooded paddy, preemergence weed control; format: in vivo, Presl.; conditions: rated 3-4 weeks after treatment, 0-9 rating scale
How it was run: as §3

[19] = tested on: SAGPY (Sagittaria pygmaea); experiment: Flooded paddy, preemergence weed control; format: in vivo, L.; conditions: rated 3-4 weeks after treatment, 0-9 rating scale
How it was run: as §3

[20] = tested on: ORYSAT (Rice, Tebonnet); experiment: Flooded paddy, post-transplant rice tolerance; format: in vivo, Oryza sativa, (L.) Tebonnet; conditions: flooded paddy, post-transplant rice, rated 3-4 weeks after treatment, 0-9 rating scale
How it was run: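 Two ten-day-old seedlings were transplanted into silt loam, flooded and held at 1.5 to 3 cm water above the soil before herbicide treatment. Pots stayed in the greenhouse at that water level. Injury was scored visually on a 0-9 scale versus untreated control.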

Cn1c(C(F)(F)F)cc(=O)n(-c2ccc3snc(C4OCC(CO)O4)c3c2)c1=O (centres unmarked) [Compound 73, 3-[3-[4-(hydroxymethyl)-1,3-dioxolan-2-yl]-1,2-benzisothiazol-5-yl]-1-methyl-6-(trifluoromethyl)uracil]
ABUTH herbicidal rating ([1]; rate 0.0320 kg/ha): 9.0
ABUTH herbicidal rating ([1]; rate 0.0620 kg/ha): 9.0
GALAP herbicidal rating ([2]; rate 0.0320 kg/ha): 9.0
GALAP herbicidal rating ([2]; rate 0.0620 kg/ha): 9.0
IPOHE herbicidal rating ([3]; rate 0.0320 kg/ha): 9.0
IPOHE herbicidal rating ([3]; rate 0.0620 kg/ha): 9.0
ECHCG herbicidal rating ([4]; rate 0.0320 kg/ha): 2.0
ECHCG herbicidal rating ([4]; rate 0.0620 kg/ha): 3.0
SETVI herbicidal rating ([5]; rate 0.0320 kg/ha): 4.0
SETVI herbicidal rating ([5]; rate 0.0620 kg/ha): 8.0
GLXMAW herbicidal rating ([6]; rate 0.0320 kg/ha): 5.5
GLXMAW herbicidal rating ([6]; rate 0.0620 kg/ha): 7.5
ORYSAT herbicidal rating ([7]; rate 0.0320 kg/ha): 3.0
ORYSAT herbicidal rating ([7]; rate 0.0620 kg/ha): 4.0
ZEAMX herbicidal rating ([8]; rate 0.0320 kg/ha): 4.5
ZEAMX herbicidal rating ([8]; rate 0.0620 kg/ha): 5.0
Preemergence herbicidal rating AMBEL ([9]; Rate 0.0620 kg/ha): 8.5
Preemergence herbicidal rating AMBEL ([9]; Rate 0.1250 kg/ha): 9.0
Preemergence herbicidal rating AMBEL ([9]; Rate 0.2500 kg/ha): 9.0
Preemergence herbicidal rating CASOB ([10]; Rate 0.0620 kg/ha): 2.5
Preemergence herbicidal rating CASOB ([10]; Rate 0.1250 kg/ha): 6.0
Preemergence herbicidal rating CASOB ([10]; Rate 0.2500 kg/ha): 8.0
Preemergence herbicidal rating CHEAL ([11]; Rate 0.0620 kg/ha): 9.0
Preemergence herbicidal rating CHEAL ([11]; Rate 0.1250 kg/ha): 9.0
Preemergence herbicidal rating CHEAL ([11]; Rate 0.2500 kg/ha): 9.0
Preemergence herbicidal rating IPOHE ([12]; Rate 0.0620 kg/ha): 7.0
Preemergence herbicidal rating IPOHE ([12]; Rate 0.1250 kg/ha): 9.0
Preemergence herbicidal rating IPOHE ([12]; Rate 0.2500 kg/ha): 9.0
Preemergence herbicidal rating ECHCG ([13]; Rate 0.0620 kg/ha): 7.5
Preemergence herbicidal rating ECHCG ([13]; Rate 0.1250 kg/ha): 9.0
Preemergence herbicidal rating ECHCG ([13]; Rate 0.2500 kg/ha): 9.0
Preemergence herbicidal rating SETVI ([14]; Rate 0.0620 kg/ha): 9.0
Preemergence herbicidal rating SETVI ([14]; Rate 0.1250 kg/ha): 9.0
Preemergence herbicidal rating SETVI ([14]; Rate 0.2500 kg/ha): 9.0
Preemergence herbicidal rating ORYSAT ([15]; Rate 0.0620 kg/ha): 6.0
Preemergence herbicidal rating ORYSAT ([15]; Rate 0.1250 kg/ha): 7.0
Preemergence herbicidal rating ORYSAT ([15]; Rate 0.2500 kg/ha): 8.0
herbicidal rating, ECHORC ([16]; rate 0.0080 kg/ha): 0.0
herbicidal rating, ECHORC ([16]; rate 0.0320 kg/ha): 0.0
herbicidal rating, ECHORC ([16]; rate 0.1250 kg/ha): 7.0
herbicidal rating, CYPIR ([17]; rate 0.0080 kg/ha): 0.0
herbicidal rating, CYPIR ([17]; rate 0.0320 kg/ha): 0.0
herbicidal rating, CYPIR ([17]; rate 0.1250 kg/ha): 9.0
herbicidal rating, MOOVA ([18]; rate 0.0080 kg/ha): 0.0
herbicidal rating, MOOVA ([18]; rate 0.0320 kg/ha): 0.0
herbicidal rating, MOOVA ([18]; rate 0.1250 kg/ha): 9.0
herbicidal rating, SAGPY ([19]; rate 0.0080 kg/ha): 0.0
herbicidal rating, SAGPY ([19]; rate 0.0320 kg/ha): 0.0
herbicidal rating, SAGPY ([19]; rate 0.1250 kg/ha): 3.0
herbicidal rating, ORYSAT (rice tolerance) ([20]; rate 0.0080 kg/ha): 0.0
herbicidal rating, ORYSAT (rice tolerance) ([20]; rate 0.0320 kg/ha): 0.0
herbicidal rating, ORYSAT (rice tolerance) ([20]; rate 0.1250 kg/ha): 5.0

Cn1c(C(F)(F)F)cc(=O)n(-c2ccc3snc(C4OCCCO4)c3c2)c1=O [Compound 28, 3-(3-m-dioxan-2-yl-1,2-benzisothiazol-5-yl)-1-methyl-6-(trifluoromethyl)uracil]
Postemergence herbicidal rating, ABUTH ([1]; rate 0.0320 kg/ha): 9.0
Postemergence herbicidal rating, ABUTH ([1]; rate 0.0620 kg/ha): 9.0
Postemergence herbicidal rating, GALAP ([2]; rate 0.0320 kg/ha): 8.3
Postemergence herbicidal rating, GALAP ([2]; rate 0.0620 kg/ha): 9.0
Postemergence herbicidal rating, IPOHE ([3]; rate 0.0320 kg/ha): 8.3
Postemergence herbicidal rating, IPOHE ([3]; rate 0.0620 kg/ha): 9.0
Postemergence herbicidal rating, ECHCG ([4]; rate 0.0320 kg/ha): 4.3
Postemergence herbicidal rating, ECHCG ([4]; rate 0.0620 kg/ha): 8.5
Postemergence herbicidal rating, SETVI ([5]; rate 0.0320 kg/ha): 8.3
Postemergence herbicidal rating, SETVI ([5]; rate 0.0620 kg/ha): 8.5
Postemergence herbicidal rating, GLXMAW ([6]; rate 0.0320 kg/ha): 9.0
Postemergence herbicidal rating, GLXMAW ([6]; rate 0.0620 kg/ha): 9.0
Postemergence herbicidal rating, ORYSAT ([7]; rate 0.0320 kg/ha): 5.3
Postemergence herbicidal rating, ORYSAT ([7]; rate 0.0620 kg/ha): 6.5
Postemergence herbicidal rating, ZEAMX ([8]; rate 0.0320 kg/ha): 5.8
Postemergence herbicidal rating, ZEAMX ([8]; rate 0.0620 kg/ha): 6.3
AMBEL preemergence herbicidal rating ([9]; Rate 0.0620 kg/ha): 9.0
AMBEL preemergence herbicidal rating ([9]; Rate 0.1250 kg/ha): 9.0
AMBEL preemergence herbicidal rating ([9]; Rate 0.2500 kg/ha): 9.0
CASOB preemergence herbicidal rating ([10]; Rate 0.0620 kg/ha): 9.0
CASOB preemergence herbicidal rating ([10]; Rate 0.1250 kg/ha): 9.0
CASOB preemergence herbicidal rating ([10]; Rate 0.2500 kg/ha): 9.0
CHEAL preemergence herbicidal rating ([11]; Rate 0.0620 kg/ha): 9.0
CHEAL preemergence herbicidal rating ([11]; Rate 0.1250 kg/ha): 9.0
CHEAL preemergence herbicidal rating ([11]; Rate 0.2500 kg/ha): 9.0
IPOHE preemergence herbicidal rating ([12]; Rate 0.0620 kg/ha): 9.0
IPOHE preemergence herbicidal rating ([12]; Rate 0.1250 kg/ha): 9.0
IPOHE preemergence herbicidal rating ([12]; Rate 0.2500 kg/ha): 9.0
ECHCG preemergence herbicidal rating ([13]; Rate 0.0620 kg/ha): 9.0
ECHCG preemergence herbicidal rating ([13]; Rate 0.1250 kg/ha): 9.0
ECHCG preemergence herbicidal rating ([13]; Rate 0.2500 kg/ha): 9.0
SETVI preemergence herbicidal rating ([14]; Rate 0.0620 kg/ha): 9.0
SETVI preemergence herbicidal rating ([14]; Rate 0.1250 kg/ha): 9.0
SETVI preemergence herbicidal rating ([14]; Rate 0.2500 kg/ha): 9.0
ORYSAT preemergence herbicidal rating ([15]; Rate 0.0620 kg/ha): 9.0
ORYSAT preemergence herbicidal rating ([15]; Rate 0.1250 kg/ha): 9.0
ORYSAT preemergence herbicidal rating ([15]; Rate 0.2500 kg/ha): 9.0
herbicidal rating, ECHORC ([16]; rate 0.0080 kg/ha): 5.0
herbicidal rating, ECHORC ([16]; rate 0.0320 kg/ha): 8.5
herbicidal rating, ECHORC ([16]; rate 0.1250 kg/ha): 9.0
herbicidal rating, CYPIR ([17]; rate 0.0080 kg/ha): 8.0
herbicidal rating, CYPIR ([17]; rate 0.0320 kg/ha): 9.0
herbicidal rating, CYPIR ([17]; rate 0.1250 kg/ha): 9.0
herbicidal rating, MOOVA ([18]; rate 0.0080 kg/ha): 9.0
herbicidal rating, MOOVA ([18]; rate 0.0320 kg/ha): 9.0
herbicidal rating, MOOVA ([18]; rate 0.1250 kg/ha): 9.0
herbicidal rating, SAGPY ([19]; rate 0.0080 kg/ha): 0.0
herbicidal rating, SAGPY ([19]; rate 0.0320 kg/ha): 8.0
herbicidal rating, SAGPY ([19]; rate 0.1250 kg/ha): 9.0
herbicidal rating, ORYSAT (rice tolerance) ([20]; rate 0.0080 kg/ha): 7.0
herbicidal rating, ORYSAT (rice tolerance) ([20]; rate 0.0320 kg/ha): 9.0
herbicidal rating, ORYSAT (rice tolerance) ([20]; rate 0.1250 kg/ha): 9.0
